# Reference: ChEMBL document CHEMBL1201862, “PubChem BioAssay data set” (2004)
# Active and inactive are the calls of the source.
# Key:
# [1] = test system: Escherichia coli; assay: microbe, parasite or virus in culture
# [2] = Luminescence Cell-Based Dose Confirmation HTS to Identify Activators of 5'UTR Stem-Loop Driven Alpha-Synuclein mRNA Translation in H4 Neuroglioblastoma Cells. [Related pubchem assays: 1829 (Project Summary), 1814 (Primary HTS)]; format: functional
# [3] = Luminescence Cell-Based Dose Response HTS to Identify Activators of Luciferase Translation or Activity in H4 […] Cells. [Related pubchem assays: 1829 (Project Summary), 1814 (Primary HTS)]; format: functional
# [4] = cells; format: functional
# [5] = molecular target: T1, High affinity choline transporter 1 (Homo sapiens, UniProt Q9GZV3); assay: CHT inhibitors, dose response, cell-based, 5-point CRC, membrane potential dye (AID 504840); format: functional
# T1 sequence (Q9GZV3 whole entry): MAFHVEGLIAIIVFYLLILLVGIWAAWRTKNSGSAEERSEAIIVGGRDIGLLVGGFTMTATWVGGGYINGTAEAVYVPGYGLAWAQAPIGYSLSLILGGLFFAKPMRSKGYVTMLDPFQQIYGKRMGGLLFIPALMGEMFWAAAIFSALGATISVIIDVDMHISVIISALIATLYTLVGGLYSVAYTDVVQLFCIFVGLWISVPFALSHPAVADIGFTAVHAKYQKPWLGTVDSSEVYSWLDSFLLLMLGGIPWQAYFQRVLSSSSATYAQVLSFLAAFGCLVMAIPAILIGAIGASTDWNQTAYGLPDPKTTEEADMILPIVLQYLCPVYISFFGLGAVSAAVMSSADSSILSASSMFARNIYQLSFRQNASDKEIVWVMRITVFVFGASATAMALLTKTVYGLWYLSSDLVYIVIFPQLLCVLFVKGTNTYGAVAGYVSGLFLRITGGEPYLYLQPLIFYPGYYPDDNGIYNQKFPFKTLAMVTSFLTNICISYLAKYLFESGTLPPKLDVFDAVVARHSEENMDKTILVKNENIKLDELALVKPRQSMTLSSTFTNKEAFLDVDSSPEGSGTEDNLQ
# [6] = test system: HEK293; assay: inhibitors of LMP1-driven NF-kB reporter, dose response, cell-based, HEK293, luciferase, cherry-pick (AID 588343); format: functional; settings: Homo sapiens
# [7] = molecular target: Dual specificity protein kinase CLK1 (Homo sapiens, UniProt P49759); assay: CLK1 kinase inhibitors, off-target check, dose response, selectivity assay for Dyrk1A inhibitor project, biochemical, cherry-picked samples (AID 588811)
# [8] = test system: Vero; assay: cells; format: functional; settings: Chlorocebus sabaeus
# [9] = molecular target: T2, Short transient receptor potential channel 4 (Mus musculus, UniProt Q9QUQ5); assay: mouse TRPC4 channel activators, dose response, cell-based, HEK293 TRPC4/mu-opioid, Fluo-4 calcium (AID 434937); format: functional
# T2 sequence (Q9QUQ5 whole entry): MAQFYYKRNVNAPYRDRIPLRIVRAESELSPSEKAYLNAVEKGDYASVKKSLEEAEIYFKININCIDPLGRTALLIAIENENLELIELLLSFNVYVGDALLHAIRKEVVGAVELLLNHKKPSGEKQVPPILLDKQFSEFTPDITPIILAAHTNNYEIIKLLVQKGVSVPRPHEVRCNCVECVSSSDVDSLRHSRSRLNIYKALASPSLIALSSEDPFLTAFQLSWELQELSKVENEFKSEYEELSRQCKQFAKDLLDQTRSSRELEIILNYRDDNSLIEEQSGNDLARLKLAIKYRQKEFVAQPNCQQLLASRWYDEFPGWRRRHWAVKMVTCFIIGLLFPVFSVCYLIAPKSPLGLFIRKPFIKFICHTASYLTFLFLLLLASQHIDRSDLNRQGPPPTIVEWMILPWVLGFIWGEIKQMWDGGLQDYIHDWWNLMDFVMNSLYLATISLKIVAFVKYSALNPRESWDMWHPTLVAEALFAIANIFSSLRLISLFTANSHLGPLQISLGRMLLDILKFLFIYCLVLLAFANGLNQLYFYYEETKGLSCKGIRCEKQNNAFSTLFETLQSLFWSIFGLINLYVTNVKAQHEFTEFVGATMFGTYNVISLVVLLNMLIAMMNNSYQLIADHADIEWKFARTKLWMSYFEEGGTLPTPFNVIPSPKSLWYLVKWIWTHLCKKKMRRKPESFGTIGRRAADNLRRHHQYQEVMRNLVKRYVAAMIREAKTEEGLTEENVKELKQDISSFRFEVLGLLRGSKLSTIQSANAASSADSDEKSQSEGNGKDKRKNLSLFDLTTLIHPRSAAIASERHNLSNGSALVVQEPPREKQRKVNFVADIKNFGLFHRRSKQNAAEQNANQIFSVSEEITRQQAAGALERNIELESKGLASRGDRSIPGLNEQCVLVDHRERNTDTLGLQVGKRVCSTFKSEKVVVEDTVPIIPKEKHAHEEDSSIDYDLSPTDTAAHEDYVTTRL
# [10] = molecular target: Delta-type opioid receptor (Homo sapiens, UniProt P41143); assay: Counterscreen for agonists of heterodimerization of the mu 1 (OPRM1) and delta 1 (OPRD1) opioid receptors: Luminescence-based cell-based high throughput dose response assay to identify agonists of OPRD1 homodimerization. [Related pubchem assays (depositor defined):AID504326, AID504355, AID504692, AID504904, AID504905]; format: functional
# [11] = molecular target: Mu-type opioid receptor (Homo sapiens, UniProt P35372); assay: Counterscreen for agonists of heterodimerization of the mu 1 (OPRM1) and delta 1 (OPRD1) opioid receptors: Luminescence-based cell-based high throughput dose response assay to identify agonists of OPRM1 homodimerization.; format: functional;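 note: U2OS cells expressing OPRM1 and beta-arrestin as split beta-galactosidase partners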
# [12] = molecular target: 5-hydroxytryptamine receptor 5A (Homo sapiens, UniProt P47898); assay: Counterscreen for agonists of OPRM1-OPRD1 heterodimerization: luminescence-based cell-based high throughput dose response assay to identify agonists of 5-hydroxytryptamine (serotonin) 5A receptor (HTR5A). [Related pubchem assays (depositor defined):AID504326, AID504355, AID504692, AID504904, AID504905]; format: functional
# [13] = molecular target: T2, Short transient receptor potential channel 4; assay: mouse TRPC4 channel inhibitors, dose response, cell-based, HEK293 TRPC4/mu-opioid, Fluo-4 calcium (AID 434942); format: functional;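 note: potency of inhibitors blocking the TRPC4 calcium response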
# [14] = test system: H9c2; assay: cells; format: functional, cell-based; settings: Rattus norvegicus, H9c2, Myocardium;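 note: confirmatory concentration-response retest of ultra-high-throughput screening hits for modulation of myocardial damage; cell death induced by hydrogen peroxide oxidative stress; compound pretreatment for 60 min then peroxide exposure for 2 h; potency is for protecting the cells against peroxide damage rather than for killing them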
# [15] = molecular target: 26S proteasome non-ATPase regulatory subunit 14 (Homo sapiens, UniProt O00487); assay: inhibition of proteasome subunit RPN11 – biochemical, fluorescence polarization, uHTS hits, confirmation (AID 602368); format: functional
# [16] = molecular target: 72 kDa type IV collagenase (Homo sapiens, UniProt P08253); assay: Dose Response validation of uHTS RPN11 inhibitor hits using a MMP-2 Fluorescence assay.; format: functional
# [17] = molecular target: Prothrombin (Bos taurus, UniProt P00735); assay: thrombin inhibition, dose response, biochemical, fluorescence polarization, uHTS hits (AID 602369); format: functional
# [18] = molecular target: T3, Bcl-2-related protein A1 (Mus musculus, UniProt Q07440); format: functional;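 note: confirmatory dose–response counterscreen on Bfl-1, used to check hits from a UBC13 polyubiquitin inhibitor campaign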
# T3 sequence (Q07440 whole entry): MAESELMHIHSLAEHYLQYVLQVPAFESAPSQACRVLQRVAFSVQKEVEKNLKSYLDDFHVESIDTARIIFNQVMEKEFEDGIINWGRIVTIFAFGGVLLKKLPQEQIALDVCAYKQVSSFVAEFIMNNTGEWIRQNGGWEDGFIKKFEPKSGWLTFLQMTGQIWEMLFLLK
# [19] = molecular target: T4, Ubiquitin-conjugating enzyme E2 N (Homo sapiens, UniProt P61088); format: functional
# T4 sequence (P61088 whole entry): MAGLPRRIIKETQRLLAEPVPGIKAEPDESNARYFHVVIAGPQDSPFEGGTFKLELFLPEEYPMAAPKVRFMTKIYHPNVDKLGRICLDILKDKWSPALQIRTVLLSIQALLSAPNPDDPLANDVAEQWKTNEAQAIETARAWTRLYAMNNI
# [20] = molecular target: T4, Ubiquitin-conjugating enzyme E2 N; format: functional; remark: listed apart in the source
# [21] = molecular target: T5, Replicative DNA helicase DnaB (Mycobacterium tuberculosis, UniProt P9WMR3); assay: DnaB intein splicing inhibitors, dose response, biochemical, cell-free fluorescence (AID 449749); format: functional
# T5 sequence (P9WMR3 whole entry): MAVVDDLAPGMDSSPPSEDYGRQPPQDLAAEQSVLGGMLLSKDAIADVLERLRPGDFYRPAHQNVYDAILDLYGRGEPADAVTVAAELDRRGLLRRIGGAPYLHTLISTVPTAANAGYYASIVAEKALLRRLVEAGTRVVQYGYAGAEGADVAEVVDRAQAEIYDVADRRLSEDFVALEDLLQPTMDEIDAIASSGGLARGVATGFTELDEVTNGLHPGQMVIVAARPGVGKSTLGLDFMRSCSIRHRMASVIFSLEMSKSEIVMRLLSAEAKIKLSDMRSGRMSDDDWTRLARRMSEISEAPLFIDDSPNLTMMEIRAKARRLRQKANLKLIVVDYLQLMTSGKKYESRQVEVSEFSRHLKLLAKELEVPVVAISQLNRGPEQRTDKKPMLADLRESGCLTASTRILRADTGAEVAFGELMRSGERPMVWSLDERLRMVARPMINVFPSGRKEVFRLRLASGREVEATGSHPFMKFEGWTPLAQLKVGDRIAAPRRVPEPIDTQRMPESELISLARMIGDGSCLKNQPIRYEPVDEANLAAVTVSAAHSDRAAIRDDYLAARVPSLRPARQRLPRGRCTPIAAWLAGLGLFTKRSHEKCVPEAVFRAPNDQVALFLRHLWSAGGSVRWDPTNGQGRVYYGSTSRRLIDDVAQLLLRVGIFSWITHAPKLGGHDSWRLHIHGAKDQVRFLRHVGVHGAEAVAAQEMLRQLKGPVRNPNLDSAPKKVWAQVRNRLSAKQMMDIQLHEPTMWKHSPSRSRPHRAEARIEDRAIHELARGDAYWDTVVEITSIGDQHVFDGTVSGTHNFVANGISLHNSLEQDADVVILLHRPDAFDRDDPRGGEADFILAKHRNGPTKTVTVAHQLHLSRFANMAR
# [22] = molecular target: T6, Protein RecA (Mycobacterium tuberculosis, UniProt P9WHJ3); assay: Fluorescence Cell-Free Homogeneous Dose Retest to Identify Inhibitors of RecA-Intein Splicing Activity. [Related pubchem assays (depositor defined):AID2097, AID2223, AID489010, AID492950]; format: functional
# T6 sequence (P9WHJ3 whole entry): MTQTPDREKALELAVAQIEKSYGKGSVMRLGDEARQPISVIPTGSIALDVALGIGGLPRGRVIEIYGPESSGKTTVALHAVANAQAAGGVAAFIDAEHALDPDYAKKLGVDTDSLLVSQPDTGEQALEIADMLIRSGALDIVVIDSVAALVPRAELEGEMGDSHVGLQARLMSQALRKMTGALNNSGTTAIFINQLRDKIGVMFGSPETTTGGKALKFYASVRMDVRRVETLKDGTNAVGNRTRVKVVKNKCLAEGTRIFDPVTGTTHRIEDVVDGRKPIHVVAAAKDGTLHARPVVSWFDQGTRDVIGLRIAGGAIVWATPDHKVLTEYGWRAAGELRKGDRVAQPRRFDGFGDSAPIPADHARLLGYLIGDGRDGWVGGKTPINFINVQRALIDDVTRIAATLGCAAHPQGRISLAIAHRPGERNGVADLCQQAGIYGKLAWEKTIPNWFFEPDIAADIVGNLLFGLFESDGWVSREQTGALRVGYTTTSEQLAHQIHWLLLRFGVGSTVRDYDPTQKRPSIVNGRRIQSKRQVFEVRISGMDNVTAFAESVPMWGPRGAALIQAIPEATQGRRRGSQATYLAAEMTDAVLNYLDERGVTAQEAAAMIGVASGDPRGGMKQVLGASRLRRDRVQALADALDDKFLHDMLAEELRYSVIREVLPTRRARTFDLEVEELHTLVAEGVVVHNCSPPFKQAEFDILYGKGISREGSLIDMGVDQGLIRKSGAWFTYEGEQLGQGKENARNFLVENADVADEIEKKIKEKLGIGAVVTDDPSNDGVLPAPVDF
# Delta-type opioid receptor, sequence (P41143 whole entry): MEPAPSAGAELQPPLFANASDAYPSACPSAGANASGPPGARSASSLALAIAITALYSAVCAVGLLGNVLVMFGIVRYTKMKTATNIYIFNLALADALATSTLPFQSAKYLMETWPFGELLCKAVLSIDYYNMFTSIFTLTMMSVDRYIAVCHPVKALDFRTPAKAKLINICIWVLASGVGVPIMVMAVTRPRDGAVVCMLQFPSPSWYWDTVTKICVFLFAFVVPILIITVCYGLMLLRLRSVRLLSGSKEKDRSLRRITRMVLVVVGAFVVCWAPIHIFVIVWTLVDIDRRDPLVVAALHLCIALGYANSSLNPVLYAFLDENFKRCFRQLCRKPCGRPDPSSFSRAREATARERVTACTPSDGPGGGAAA
# 5-hydroxytryptamine receptor 5A, sequence (P47898 whole entry): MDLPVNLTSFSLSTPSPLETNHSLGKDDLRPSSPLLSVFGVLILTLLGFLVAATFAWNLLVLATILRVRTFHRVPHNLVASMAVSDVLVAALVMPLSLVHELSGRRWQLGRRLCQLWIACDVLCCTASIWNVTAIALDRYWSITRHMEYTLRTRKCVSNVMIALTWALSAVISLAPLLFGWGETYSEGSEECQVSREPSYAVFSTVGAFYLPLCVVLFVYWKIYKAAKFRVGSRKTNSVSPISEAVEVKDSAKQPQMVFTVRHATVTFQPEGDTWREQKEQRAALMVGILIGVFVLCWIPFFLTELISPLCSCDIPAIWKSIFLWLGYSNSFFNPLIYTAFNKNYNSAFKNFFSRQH
# Mu-type opioid receptor, sequence (P35372 whole entry): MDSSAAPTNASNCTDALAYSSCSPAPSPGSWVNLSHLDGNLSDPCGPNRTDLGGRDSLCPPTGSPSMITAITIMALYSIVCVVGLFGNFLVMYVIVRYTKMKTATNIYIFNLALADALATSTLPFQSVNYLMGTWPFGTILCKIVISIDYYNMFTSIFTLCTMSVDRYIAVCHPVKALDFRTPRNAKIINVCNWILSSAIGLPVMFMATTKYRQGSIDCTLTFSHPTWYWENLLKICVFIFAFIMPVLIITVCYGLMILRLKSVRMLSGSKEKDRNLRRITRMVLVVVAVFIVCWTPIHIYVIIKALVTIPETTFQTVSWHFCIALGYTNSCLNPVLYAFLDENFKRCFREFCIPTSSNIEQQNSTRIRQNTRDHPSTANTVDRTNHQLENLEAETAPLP
# Dual specificity protein kinase CLK1, sequence (P49759 whole entry): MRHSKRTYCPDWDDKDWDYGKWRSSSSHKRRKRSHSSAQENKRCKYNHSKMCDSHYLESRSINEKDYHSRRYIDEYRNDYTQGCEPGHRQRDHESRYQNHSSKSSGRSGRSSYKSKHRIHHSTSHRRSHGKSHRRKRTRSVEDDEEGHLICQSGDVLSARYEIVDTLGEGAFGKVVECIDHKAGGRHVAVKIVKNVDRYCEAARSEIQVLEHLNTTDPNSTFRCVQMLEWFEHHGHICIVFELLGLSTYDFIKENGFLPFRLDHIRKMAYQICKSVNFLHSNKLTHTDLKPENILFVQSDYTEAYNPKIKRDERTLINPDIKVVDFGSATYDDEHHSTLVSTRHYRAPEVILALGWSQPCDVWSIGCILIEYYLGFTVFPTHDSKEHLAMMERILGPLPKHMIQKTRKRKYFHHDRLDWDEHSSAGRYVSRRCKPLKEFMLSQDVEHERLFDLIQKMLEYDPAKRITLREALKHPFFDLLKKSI
# 26S proteasome non-ATPase regulatory subunit 14, sequence (O00487 whole entry): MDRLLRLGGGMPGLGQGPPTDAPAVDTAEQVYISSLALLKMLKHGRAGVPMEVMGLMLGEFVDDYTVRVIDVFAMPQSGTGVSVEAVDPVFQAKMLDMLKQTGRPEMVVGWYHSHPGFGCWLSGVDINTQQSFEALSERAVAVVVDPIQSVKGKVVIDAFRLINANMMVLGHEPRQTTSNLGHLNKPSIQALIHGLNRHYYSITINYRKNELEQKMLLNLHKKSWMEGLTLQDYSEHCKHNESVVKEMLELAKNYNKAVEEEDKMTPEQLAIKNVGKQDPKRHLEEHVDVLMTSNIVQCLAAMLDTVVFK
# 72 kDa type IV collagenase, sequence (P08253 whole entry): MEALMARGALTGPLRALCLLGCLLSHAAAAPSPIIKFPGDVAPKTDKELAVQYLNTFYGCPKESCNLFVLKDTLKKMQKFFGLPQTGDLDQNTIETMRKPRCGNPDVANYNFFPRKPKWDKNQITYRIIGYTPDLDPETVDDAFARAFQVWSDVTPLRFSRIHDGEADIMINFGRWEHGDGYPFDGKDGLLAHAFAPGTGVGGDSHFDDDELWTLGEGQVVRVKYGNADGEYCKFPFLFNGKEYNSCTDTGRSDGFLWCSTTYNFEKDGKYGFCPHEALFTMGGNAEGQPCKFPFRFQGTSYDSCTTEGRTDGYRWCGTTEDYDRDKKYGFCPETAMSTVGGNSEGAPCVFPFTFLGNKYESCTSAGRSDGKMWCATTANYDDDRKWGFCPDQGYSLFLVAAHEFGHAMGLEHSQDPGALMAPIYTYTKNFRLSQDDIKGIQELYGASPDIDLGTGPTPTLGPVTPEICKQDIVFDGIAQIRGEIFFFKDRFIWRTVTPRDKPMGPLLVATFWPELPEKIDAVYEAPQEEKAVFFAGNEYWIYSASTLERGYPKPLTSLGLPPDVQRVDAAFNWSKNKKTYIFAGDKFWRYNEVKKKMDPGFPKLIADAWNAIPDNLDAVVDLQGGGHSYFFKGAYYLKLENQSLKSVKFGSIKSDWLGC
structure (smiles),measurement,setting,value
O=C(Nc1ccccc1Oc1ccccc1)c1ccc(Br)o1,AC50,[1],> 380 µM (inactive)
CCc1cc2c(=O)n(C(C)C(=O)OC3CCCCC3)cnc2s1 (stereo not given),EC50,[2],105 µM (active)
same,EC50,[3],67.6 µM (active)
same,IC50,[4],17.9 µM (active)
same,AC50,[1],54.4 µM (active)
Fc1ccc(N=C(S)Nc2ccc(F)c(Cl)c2)cc1Cl,IC50,[5],7.94 µM (active)
c1csc(CNc2ncnc3ccc(-c4ccoc4)cc23)c1,AC50,[6],19 µM (active)
same,AC50,[7],0.00979 µM (active)
Cc1noc(CN(C)c2ncnc3ccc(-c4ccc5c(c4)OCO5)cc23)n1,AC50,[7],< 0.00195 µM (active)
N=c1n(CC(=O)c2cccc([N+](=O)[O-])c2)c2ccccc2n1Cc1ccccc1,CC50,[8],11.2 µM (active)
COc1ccc(C(CNC(=O)/C=C/c2c(Cl)nc3ccccn23)N(C)C)cc1 (stereo not given),EC50,[9],0.473 µM (active)
same,EC50,[10],> 92.5 µM (inactive)
same,EC50,[11],> 92.5 µM (inactive)
same,EC50,[12],> 92.5 µM (inactive)
CN(C(=O)COC(=O)CNC(=O)C12CC3CC(CC(C3)C1)C2)C1CCS(=O)(=O)C1 (stereo not given),AC50,[1],27.2 µM (active)
COc1cccc(CC2(CO)CCCN(Cc3ccccc3-c3ccco3)C2)c1 (stereo not given),EC50,[13],1.19 µM (active)
same,EC50,[9],2.66 µM (active)
same,EC50,[10],> 92.5 µM (inactive)
same,EC50,[11],> 92.5 µM (inactive)
same,EC50,[12],> 92.5 µM (inactive)
CCOC(=O)N1CCN(C(=O)C2CCCN(c3ncnc4c3nc3n4CCCCC3)C2)CC1 (stereo not given),IC50,[5],12.9 µM (active)
O=C1N(c2ccccc2C(F)(F)F)O[C@]1(c1ccccc1)C1CCCCC1,CC50,[8],> 25 µM (active)
CN(C)C(CN=C(S)Nc1ccccc1)c1cccnc1 (stereo not given),EC50,[9],0.149 µM (active)
same,EC50,[10],> 92.4 µM (inactive)
same,EC50,[11],> 92.4 µM (inactive)
same,EC50,[12],> 92.4 µM (inactive)
COc1ccc2o/c(=N/NC(=O)c3cccs3)c(C(N)=O)cc2c1,IC50,[14],> 79 µM (inactive)
same,IC50,[15],38.5 µM (active)
same,IC50,[16],> 100 µM (inactive)
same,IC50,[17],79.7 µM (active)
O=C(CSCc1ccc([N+](=O)[O-])cc1)N/N=C/c1cccnc1,IC50,[18],> 20 µM (inactive)
same,IC50,[19],8.26 µM (active)
same,IC50,[20],10.9 µM (active)
same,AC50,[21],> 380 µM (inactive)
same,EC50,[22],> 380 µM (inactive)
